Source: the Kinase Knowledgebase extract (Sharma et al. 2016)

target: CDK2 (human) (UniProt P24941); experiment: Enzyme Assay

| SMILES | Ki [nM] |
| --- | --- |
| Cn1cnc(NC2CCCC2CNc2ccc3c(=O)[nH][nH]c3c2)c1 (stereo unspecified) | < 1000 |
| Cc1cc(Nc2cc(C3CC3)[nH]n2)nc(Oc2ccc3c(=O)[nH][nH]c3c2)n1 | < 1000 |
| O=c1[nH][nH]c2cc(OC3COCC(Nc4cc(C5CC5)[nH]n4)C3)ccc12 (stereo unspecified) | < 1000 |
| O=c1[nH][nH]c2cc(Nc3nc(Nc4n[nH]c5ncccc45)c4ccccc4n3)ccc12 | < 1000 |
| O=c1[nH][nH]c2cc(Oc3nc(Nc4cc(C5CC5)[nH]n4)cc(N4CCOCC4)n3)ccc12 | < 1000 |
| Cc1cnc(NC(=O)CC(=O)Nc2ccc3c(=O)[nH][nH]c3c2)s1 | < 1000 |
| CC(C)NC(=O)c1cc(Nc2nc(-c3ccc4[nH][nH]c(=O)c4c3)nc3ccccc23)n[nH]1 | < 1000 |
| Cc1nc(Nc2ccc3c(=O)[nH][nH]c3c2)nc(Nc2cc(C3CC3)[nH]n2)n1 | < 1000 |
| O=c1[nH][nH]c2ccc(-c3cc(Nc4n[nH]c5cccnc45)c4ccccc4n3)cc12 | < 1000 |
| O=C(CCNc1ccc2c(=O)[nH][nH]c2c1)Nc1cc(C2CC2)[nH]n1 | < 1000 |
| O=c1[nH][nH]c2cc(SC3COCC(Nc4nccnn4)C3)ccc12 (stereo unspecified) | < 1000 |
| O=c1[nH][nH]c2ccc(-c3nc(Nc4n[nH]c5ccccc45)cc(-c4ccccn4)n3)c(C(F)(F)F)c12 | < 1000 |
| CN(C)c1nc(Nc2ccc3c(=O)[nH][nH]c3c2)nc(Nc2cc(C3CC3)[nH]n2)n1 | < 1000 |
| O=c1[nH][nH]c2cc(Nc3ncc(N4CCOCC4)c(Nc4cc(C5CC5)[nH]n4)n3)ccc12 | < 1000 |
| O=C(CCNc1cc(C2CC2)[nH]n1)Nc1ccc2c(=O)[nH][nH]c2c1 | < 1000 |
| O=c1[nH][nH]c2cc(CCCCNc3cc(C4CC4)[nH]n3)ccc12 | < 1000 |
| O=c1[nH][nH]c2cc(Nc3nc(Nc4cc(C5CC5)[nH]n4)c4ccccc4n3)ccc12 | < 1000 |
| Cc1cnc(Sc2ccc3c(=O)[nH][nH]c3c2)nc1Nc1cc(C2CC2)[nH]n1 | < 1000 |
| O=c1[nH][nH]c2cc(CCCC(Nc3cc(C4CC4)[nH]n3)c3ccccc3)ccc12 (stereo unspecified) | < 1000 |
| COc1cccc2c(Nc3cc(C)[nH]n3)nc(Sc3ccc4c(=O)[nH][nH]c4c3)nc12 | < 1000 |

| SMILES | Ki [nM] |
| --- | --- |
| O=c1[nH][nH]c2cc(Oc3cccc(Nc4n[nH]c5ccccc45)n3)ccc12 | < 1000 |
| O=c1[nH][nH]c2ccc(CNc3cc(Nc4cc(C5CC5)[nH]n4)c4ccccc4n3)cc12 | < 1000 |
| Cn1cnc(NC(=O)CC(=O)Oc2ccc3c(=O)[nH][nH]c3c2)c1 | < 1000 |
| Cc1cnc(NC2CCC(Sc3ccc4c(=O)[nH][nH]c4c3)C2)s1 (stereo unspecified) | < 1000 |
| Cc1cnc(NC2CCC(Cc3ccc4c(=O)[nH][nH]c4c3)C2)s1 (stereo unspecified) | < 1000 |
| O=c1[nH][nH]c2cc(SC3COCC(Nc4ccccn4)C3)ccc12 (stereo unspecified) | < 1000 |
| O=c1[nH][nH]c2cc(SC(CCNc3nccnn3)Cc3ccccc3)ccc12 (stereo unspecified) | < 1000 |
| O=C(CCNc1nccnn1)Oc1ccc2c(=O)[nH][nH]c2c1 | < 1000 |
| O=C(CC(=O)Nc1ccccn1)Cc1ccc2c(=O)[nH][nH]c2c1 | < 1000 |
| O=c1[nH][nH]c2ccc(Nc3nc(Nc4cc(C5CC5)[nH]n4)c4ccccc4n3)cc12 | < 1000 |
| Cc1cc(Nc2nc(Nc3ccc4c(=O)[nH][nH]c4c3)nc3c2CN(Cc2ccccc2)CC3)n[nH]1 | < 1000 |
| O=c1[nH][nH]c2cc(SCCCNc3cc(C4CC4)[nH]n3)ccc12 | < 1000 |
| O=c1[nH][nH]c2ccc(-c3nc(Nc4n[nH]c5c(F)cc(F)cc45)c4cc(N5CCOCC5)ccc4n3)c(C(F)(F)F)c12 | < 1000 |
| O=c1[nH][nH]c2ccc(-c3cnnc(Nc4cc(C5CC5)[nH]n4)c3)cc12 | < 1000 |
| O=c1[nH][nH]c2cc(Sc3cc4ccccc4c(Nc4cc(C5CC5)[nH]n4)n3)ccc12 | < 1000 |
| O=c1[nH][nH]c2cc(Oc3cccc(Nc4cc(C5CC5)[nH]n4)n3)ccc12 | < 1000 |
| Cc1cc(Nc2nc(Nc3ccc4c(=O)[nH][nH]c4c3)nc3c2CCCC3)n[nH]1 | < 1000 |
| O=c1[nH][nH]c2cc(SC3CCCC(Nc4nccnn4)C3)ccc12 (stereo unspecified) | < 1000 |
| Cc1cnc(NC2COCC(Sc3ccc4c(=O)[nH][nH]c4c3)C2)s1 (stereo unspecified) | < 1000 |
| CCc1cc(Nc2cnnc(-c3ccc4[nH][nH]c(=O)c4c3)n2)n[nH]1 | < 1000 |

| SMILES | Ki [nM] |
| --- | --- |
| O=c1[nH][nH]c2ccc(-c3nc(Nc4n[nH]c5cccc(Cl)c45)c4ccccc4n3)c(C(F)(F)F)c12 | < 1000 |
| O=c1[nH][nH]c2cc(Nc3cccc(Nc4cc(C5CC5)[nH]n4)n3)ccc12 | < 1000 |
| O=c1[nH][nH]c2cc(CCC3COCC(Nc4ccccn4)C3)ccc12 (stereo unspecified) | < 1000 |
| Cc1cc(Nc2cc(-c3cccc([N+](=O)[O-])c3)nc(Nc3ccc4c(=O)[nH][nH]c4c3)n2)n[nH]1 | < 1000 |
| Cc1nc(Sc2ccc3c(=O)[nH][nH]c3c2)nc(Nc2cc(C3CC3)[nH]n2)c1C | < 1000 |
| C#Cc1c(-c2nc(Nc3n[nH]c4ccc(F)cc34)c3ccccc3n2)ccc2[nH][nH]c(=O)c12 | < 1000 |
| O=C1CCc2c(nc(-c3ccc4[nH][nH]c(=O)c4c3)nc2Nc2n[nH]c3ccccc23)C1 | < 1000 |
| O=c1[nH][nH]c2cc(Nc3nc(Nc4cc(C5CC5)[nH]n4)c4cc(N5CCCCC5)ccc4n3)ccc12 | < 1000 |
| Cc1cc(Nc2cc(-c3ccco3)[nH]n2)nc(-c2ccc3[nH][nH]c(=O)c3c2)n1 | < 1000 |
| O=c1[nH][nH]c2cc(Sc3nc(Nc4cc(C5CC5)[nH]n4)c4ccccc4n3)ccc12 | < 1000 |
| Cc1nc(-c2ccc3[nH][nH]c(=O)c3c2Cl)nc(Nc2n[nH]c(C3CCCC3)n2)c1C | < 1000 |
| O=c1[nH][nH]c2cc(SC3CCC(Nc4nccnn4)C3)ccc12 (stereo unspecified) | < 1000 |
| Cc1cnc(NOCCSc2ccc3c(=O)[nH][nH]c3c2)s1 | < 1000 |
| O=c1[nH][nH]c2cc(Cc3nc(Nc4cc(C5CC5)[nH]n4)c4ccccc4n3)ccc12 | < 1000 |
| Cn1cnc(NC(=O)CCOc2ccc3c(=O)[nH][nH]c3c2)c1 | < 1000 |
| Cc1cc(Nc2cnnc(-c3ccc4[nH][nH]c(=O)c4c3)c2)n[nH]1 | < 1000 |
| Cc1cc(Nc2nc(Nc3ccc4c(=O)[nH][nH]c4c3)nc3c2CCN(Cc2ccccc2)C3)n[nH]1 | < 1000 |
| O=C(NC1CCCCC1)c1cc(Nc2nc(-c3ccc4[nH][nH]c(=O)c4c3)nc3ccccc23)n[nH]1 | < 1000 |
| Cc1cc(Nc2cc(-c3cc4c(=O)[nH][nH]c4cc3C(F)(F)F)nc(N3CCNCC3)c2)n[nH]1 | < 1000 |

Now from value to molecule:

| Ki [nM] | SMILES |
| --- | --- |
| < 1000 | Cc1cnc(NC(=O)CCCc2ccc3c(=O)[nH][nH]c3c2)s1 |
| < 1000 | N#Cc1cc(Nc2n[nH]c3ccccc23)nc(-c2ccc3[nH][nH]c(=O)c3c2C(F)(F)F)n1 |
| < 1000 | O=c1[nH][nH]c2ccc(-c3nc(Nc4n[nH]c5cc(=O)n(-c6ccccc6)nc45)c4ccccc4n3)c(C(F)(F)F)c12 |
| < 1000 | O=c1[nH][nH]c2cc(NOCCNc3ccccn3)ccc12 |
| < 1000 | COc1c(-c2nc(Nc3cc(C)[nH]n3)c3ccccc3n2)ccc2[nH][nH]c(=O)c12 |
| < 1000 | COCCNc1cc(Nc2cc(C)[nH]n2)nc(OCc2ccc3c(=O)[nH][nH]c3c2)n1 |
| < 1000 | CSc1n[nH]c(Nc2nc(Nc3ccc4c(=O)[nH][nH]c4c3)ccc2[N+](=O)[O-])n1 |
| < 1000 | O=c1[nH][nH]c2ccc(-c3nc(Nc4n[nH]c(C5CC5)n4)c4ccncc4n3)c(Cl)c12 |
| < 1000 | CCc1c(-c2nc(Nc3cc(C)[nH]n3)c3ccccc3n2)ccc2[nH][nH]c(=O)c12 |
| < 1000 | CC(C)(C)c1cc(Nc2cc(-c3cccc([N+](=O)[O-])c3)nc(Nc3ccc4c(=O)[nH][nH]c4c3)n2)n[nH]1 |
| < 1000 | CC(C)(C)OC(=O)n1[nH]c(=O)c2cc(Nc3nc(Nc4cc(C5CC5)[nH]n4)c4ccccc4n3)ccc21 |
| < 1000 | O=c1[nH][nH]c2cc(SC3CCC(Nc4cc(C5CC5)[nH]n4)C3)ccc12 (stereo unspecified) |
| < 1000 | O=c1[nH][nH]c2cc(Cl)c(-c3nc(Nc4n[nH]c5ccc(F)cc45)c4cnoc4n3)cc12 |
| < 1000 | O=c1[nH][nH]c2cc(Nc3nc(Cl)nc(Nc4cc(C5CC5)[nH]n4)n3)ccc12 |
| < 1000 | O=c1[nH][nH]c2ccc(C3CCCC(Nc4cc(C5CC5)[nH]n4)C3)cc12 (stereo unspecified) |
| < 1000 | O=c1[nH][nH]c2cc(SC3CCCC(Nc4ccccn4)C3)ccc12 (stereo unspecified) |
| < 1000 | COCCNc1cc(Nc2cc(C)[nH]n2)nc(SCc2ccc3c(=O)[nH][nH]c3c2)n1 |
| < 1000 | O=c1[nH][nH]c2cc(Sc3nc(Nc4cc[nH]n4)c4ccccc4n3)ccc12 |
| < 1000 | O=c1[nH][nH]c2cc(C(F)(F)F)c(-c3cc4cccnc4c(Nc4n[nH]c5ccccc45)n3)cc12 |

| Ki [nM] | SMILES |
| --- | --- |
| < 1000 | O=c1[nH][nH]c2ccc(-c3nc(Nc4n[nH]c5cc(=O)n(-c6ccc(Oc7ccccc7)cc6)nc45)c4ccccc4n3)cc12 |
| < 1000 | O=c1[nH][nH]c2cc(Cl)c(-c3cc4c(c(Nc5n[nH]c6ccccc56)n3)CCCC4)cc12 |
| < 1000 | Cc1cnc(NCCCOc2ccc3c(=O)[nH][nH]c3c2)s1 |
| < 1000 | O=c1[nH][nH]c2ccc(-c3nc4c(c(Nc5n[nH]c6c(F)cc(F)cc56)n3)CCCC4)c(C(F)(F)F)c12 |
| < 1000 | Cc1cc(Nc2nc(Sc3ccc4c(=O)[nH][nH]c4c3)nc3cc(O)ccc23)n[nH]1 |
| < 1000 | Cn1cnc(NC2CCCC2CSc2ccc3c(=O)[nH][nH]c3c2)c1 (stereo unspecified) |
| < 1000 | CCc1cc(Nc2cc(C)[nH]n2)nc(CSc2ccc3[nH][nH]c(=O)c3c2)n1 |
| < 1000 | Cc1cnc(NC2CCCC(Sc3ccc4c(=O)[nH][nH]c4c3)C2)s1 (stereo unspecified) |
| < 1000 | Cc1cc(Nc2cc(NCCN(C)C)nc(Sc3ccc4c(=O)[nH][nH]c4c3)n2)n[nH]1 |
| < 1000 | Cc1cc(Nc2nc(COc3ccc4[nH][nH]c(=O)c4c3)nc3c2CCCC3)n[nH]1 |
| < 1000 | NC(=O)c1cc(-c2ncnc(Nc3n[nH]c4c3CCC(=O)C4)n2)cc2c(=O)[nH][nH]c12 |
| < 1000 | O=c1[nH][nH]c2cc(NCCCNc3nccnn3)ccc12 |
| < 1000 | O=c1[nH][nH]c2cc(SC(CCNc3cc(C4CC4)[nH]n3)Cc3ccccc3)ccc12 (stereo unspecified) |
| < 1000 | O=c1[nH][nH]c2cc(SCCONc3nccnn3)ccc12 |
| < 1000 | Cn1cnc(NC2CCC(Sc3ccc4c(=O)[nH][nH]c4c3)C2)c1 (stereo unspecified) |
| < 1000 | O=c1[nH][nH]c2cc(NC3CCC(Nc4ccccn4)C3)ccc12 (stereo unspecified) |
| < 1000 | Cc1cccc2c(Nc3cc(-c4ccccc4)[nH]n3)nc(-c3ccc4[nH][nH]c(=O)c4c3OC(F)(F)F)nc12 |
| < 1000 | O=c1[nH][nH]c2ccc(-c3nnc(C4CC4)c(Nc4n[nH]c5ccccc45)n3)c(C(F)(F)F)c12 |
